One may read the IC50 as the concentration at which inhibition is half-maximal.

In series [1] the target is T1, human glycine transporter 2 (GlyT2 or SLC6A5) (Homo sapiens, UniProt Q9Y345).
T1 construct: expressed in transfected cells; host or cells: Xenopus laevis oocytes injected with cRNA
T1 sequence (Q9Y345 1-797): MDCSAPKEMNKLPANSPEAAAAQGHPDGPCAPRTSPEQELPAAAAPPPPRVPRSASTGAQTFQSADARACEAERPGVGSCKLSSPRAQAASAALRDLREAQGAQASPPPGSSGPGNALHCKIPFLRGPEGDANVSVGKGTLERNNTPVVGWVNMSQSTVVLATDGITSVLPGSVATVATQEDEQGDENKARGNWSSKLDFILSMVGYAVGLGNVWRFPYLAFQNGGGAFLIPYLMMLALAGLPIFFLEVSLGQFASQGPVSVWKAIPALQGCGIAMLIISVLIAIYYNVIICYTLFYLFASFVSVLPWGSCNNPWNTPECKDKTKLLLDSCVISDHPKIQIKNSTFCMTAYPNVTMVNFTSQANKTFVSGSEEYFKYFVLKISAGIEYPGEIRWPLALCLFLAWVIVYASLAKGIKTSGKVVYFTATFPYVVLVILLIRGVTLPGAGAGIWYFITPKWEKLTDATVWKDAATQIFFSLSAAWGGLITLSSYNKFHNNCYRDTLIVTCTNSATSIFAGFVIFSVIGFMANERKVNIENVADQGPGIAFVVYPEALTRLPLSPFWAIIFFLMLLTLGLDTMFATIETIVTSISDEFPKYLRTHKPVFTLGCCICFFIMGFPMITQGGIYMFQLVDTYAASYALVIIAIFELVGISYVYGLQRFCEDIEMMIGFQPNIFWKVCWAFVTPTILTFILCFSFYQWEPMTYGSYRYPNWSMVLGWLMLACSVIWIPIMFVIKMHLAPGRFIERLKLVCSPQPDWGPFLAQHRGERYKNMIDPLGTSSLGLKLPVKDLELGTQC
Kind of series: Inhibition of glycine transport currents, two-electrode voltage clamp in oocytes expressing WT GlyT2. It counts as cell-based. To be noted: for % Maximal inhibition / IC50: GlyT2; for IC50: 30 μM glycine, 95% confidence interval in brackets; for Fold less potent than the corresponding L-isomer: GlyT2 IC50, D-isomer versus L-isomer. Here is the method:
All N-acyl amino acids were synthesized as previously described ([13]). See Supporting Information for full details. Stock solutions of 10 mg ml^−1 of N-acyl amino acids were dissolved in dimethyl sulfoxide and diluted in frog Ringer's solution (96 mM NaCl, 2 mM KCl, 1 mM MgCl2, 1.8 mM CaCl2, 5 mM Hepes, pH 7.5) to desired concentrations. Final solutions contained 0.0025% dimethyl sulfoxide, a concentration that had no effect on transporter or receptor function.
Human GlyT2a WT complementary DNA was subcloned into the plasmid oocyte transcription vector. The amplified GlyT2/plasmid oocyte transcription vector product was then transformed in Escherichia coli cells and subsequently purified using the PureLink Quick Plasmid Miniprep Kit (Invitrogen by Life Technologies) and sequenced by the Australian Genome Research Facility (Sydney, Australia). The purified plasmid DNA was linearized via the restriction enzyme, SpeI (New England Biolabs [Genesearch]) for GlyT2a. Complementary RNAs were synthesized using the mMESAGE mMACHINE T7 kit (Ambion).
All work involving the use of animals was performed in accordance with the Australian Code of Practice for the Care and Use of Animals for Scientific Purposes. […] Stage V oocytes were isolated from the lobe via digestion with 2 mg ml^−1 collagenase A (Boehringer) at 26 °C for 1 h, and 20 ng of cRNA encoding GlyT2 was injected into each oocyte cytoplasm (Drummond Nanoinject; Drummond Scientific Co). The oocytes were then stored in frog Ringer's solution (96 mM NaCl, 2 mM KCl, 1 mM MgCl2, 1.8 mM CaCl2, 5 mM Hepes, pH 7.5), which was supplemented with 2.5 mM sodium pyruvate, 0.5 mM theophylline, 50 μg/ml gentamicin and […] tetracycline. The oocytes were stored at 18 °C for 3 to 5 days, until transporter expression was adequate for measurement using the two-electrode voltage clamp technique. Adequate transporter expression was defined as a ≥30 nA current following application of the glycine EC50.
(§1) GlyT2 is electrogenic, allowing activation to be measured via the two-electrode voltage clamp technique. Oocytes were voltage clamped at −60 mV, and whole-cell currents generated by the substrate were recorded with a Geneclamp 500 amplifier (Axon Instruments), digitized by a Powerlab 2/20 chart recorder (ADInstruments). LabChart version 8 software (ADInstruments, Axon Instruments) was used to visualize and process current traces. Recordings were performed in frog Ringer's solution. Oocytes were placed in an oval-shaped bath with a volume of 0.3 ml, with laminar flow around the oocyte at a rate of 12 ml min^−1 under gravity feed.
(§2) Each of the synthesized acyl-lysine compounds were first tested for their inhibitory activity by coapplying the analogs with 30 μM glycine and assessing their ability to reduce glycine transport currents. Increasing concentrations of each acyl-lysine inhibitor were applied to generate concentration response curves, from which IC50 values and percent maximal inhibition values were calculated.
(In general: Two-electrode voltage clamp holds a large cell at a set potential and records current.)

In series [2] the target is T2, GlyT1 (Homo sapiens, UniProt P48067).
T2 construct: expressed in transfected cells
T2 sequence (P48067 1-706): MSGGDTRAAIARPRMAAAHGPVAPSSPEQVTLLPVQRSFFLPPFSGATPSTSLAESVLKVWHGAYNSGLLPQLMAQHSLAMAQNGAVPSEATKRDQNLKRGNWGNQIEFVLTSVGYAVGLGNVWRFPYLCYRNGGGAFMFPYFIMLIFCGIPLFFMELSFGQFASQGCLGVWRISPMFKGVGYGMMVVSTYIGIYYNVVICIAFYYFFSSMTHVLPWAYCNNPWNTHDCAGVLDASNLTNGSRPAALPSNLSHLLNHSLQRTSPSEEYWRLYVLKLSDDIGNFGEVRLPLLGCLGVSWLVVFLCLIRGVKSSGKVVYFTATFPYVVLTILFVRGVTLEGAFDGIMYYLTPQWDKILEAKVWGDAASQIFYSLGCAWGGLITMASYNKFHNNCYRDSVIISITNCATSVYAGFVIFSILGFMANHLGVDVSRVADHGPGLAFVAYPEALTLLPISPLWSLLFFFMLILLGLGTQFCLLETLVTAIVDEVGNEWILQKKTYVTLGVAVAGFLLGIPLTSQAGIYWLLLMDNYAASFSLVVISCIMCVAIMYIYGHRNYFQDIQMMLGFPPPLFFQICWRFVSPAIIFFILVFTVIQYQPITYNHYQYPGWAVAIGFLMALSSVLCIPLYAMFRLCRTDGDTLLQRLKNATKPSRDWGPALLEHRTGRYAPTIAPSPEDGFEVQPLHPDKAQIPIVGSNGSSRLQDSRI
Kind of series: Selectivity test against GlyT1 transporter, two-electrode voltage clamp electrophysiology. It counts as cell-based.
Source text: The lipid inhibitors described previously contain 18 carbon acyl tails with a cis-double bond in the Δ9 position (i.e., nine bonds from the amide linkage to the amino acid head group), and penetration of the lipid tails into the allosteric site appears to be a critical determinant of inhibitory activity. To investigate the effect of tail length on GlyT2 inhibitory activity, we synthesized D- and L-lysine–based inhibitors with truncated tails. Double bonds were maintained in the Δ9 position, and overall chain lengths were reduced to C16 or C14 (C16ω7-Lys and C14ω5-Lys, respectively). The chemical structures of these new lipids are shown in Figure 1, and their synthesis and characterization are described in the Supporting information section. Newly synthesized acyl lysine analogs were then tested against GlyT2 and also tested for selectivity by testing against the closely related GlyT1 transporter using two-electrode voltage clamp electrophysiology (see Table 1 for inhibitory data).
as §1, §2

Another series deals with GlyT2 W563L. The arrangement: method as in PMID 31621581. The note with it: mutagenesis data; cited from earlier work.
Series [3] deals with rat model of neuropathic pain. The note with it: cited from earlier work.
For series [4] the following is noted: cited from earlier work.
For series [5] the following is noted: cited from earlier work. The source holds these as a separate data set.
Series [6] concerns the target T2, GlyT1. Set-up: method as in Mostyn et al., 2019 ([6]). The note with it: previously published data, ref Mostyn et al., 2019 ([6]), cited from earlier work.
Series [7] concerns the target T1, human glycine transporter 2 (GlyT2 or SLC6A5). The note with it: cited from earlier work; for % Maximal inhibition / IC50: previously published data, ref Mostyn et al., 2019 ([6]); for GlyT2 inhibitory activity in words: D-configuration head group.
Another series concerns GlyT2 Y550L. The arrangement: method as in PMID 31621581. The note with it: mutagenesis data; cited from earlier work.
The test system of the next series is GlyT2. The note with it: most potent small molecule GlyT2 inhibitor to date, reference not given; cited from earlier work.

Like-named read-outs stand apart in the source and are kept apart here. Marks after values point to notes of the source that are not given here. A value given as a limit tells only on which side of the number the result lay.

As to `CCCC/C=C\CCCCCCCC(=O)N[C@H](CCCCN)C(=O)O` [C14ω5-D-Lys], in series [1] (D-Head group stereochemistry), the “% Maximal inhibition” value worked out at 79.7 ± 3.6% and the 50% inhibitory concentration (IC50) was found to be 1380 nM. The IC50 against GlyT1 [2] (D-Head group stereochemistry) was above 3000 nM.

Turning to `CCCCC=CCCCCCCCC(=O)NC(CCCCN)C(=O)O` [C14ω5-L-Lys], the “% Maximal inhibition” value in series [1] (L-Head group stereochemistry) was determined as 96.2 ± 7.3%. Besides, the IC50 in series [1] (L-Head group stereochemistry) is 703 nM; against GlyT1 [2] (L-Head group stereochemistry), above 3000 nM.

In the case of `CCC=CCCCCCCCCCCCC(=O)NC(CCCCN)C(=O)O` [C16ω3-D-Lys], in series [1] (D-Head group stereochemistry), the “% Maximal inhibition” value is on record as 91.8 ± 8.6% and the midpoint of inhibition, the IC50, lay at 699 nM. In addition, the “Fold less potent than the corresponding L-isomer” value in [1] worked out at 65 fold. This compound yielded an IC50 on GlyT1 [2] (D-Head group stereochemistry) above 3000 nM.

For the compound `CCC=CCCCCCCCCCCCC(=O)NC(CCCCN)C(=O)O` [C16ω3-L-Lys], in [1] (L-Head group stereochemistry), the “% Maximal inhibition” value worked out at 94.9 ± 1.6%. The IC50 in [1] (L-Head group stereochemistry) is 10.8 nM; on GlyT1 [2] (L-Head group stereochemistry), above 3000 nM.

Regarding `CCCCCC/C=C\CCCCCCCC(=O)N[C@H](CCCCN)C(=O)O` [C16ω7-D-Lys], in series [1] (D-Head group stereochemistry), the “% Maximal inhibition” value stood at 96.2 ± 2.1% and half-maximal inhibition (IC50) was put at 602 nM. Moreover, in series [1] (GlyT2 IC50), the “Fold reduced potency relative to C18ω9-D-Lys” value came to 12 fold. The “Fold less potent than the corresponding L-isomer” value in series [1] is listed as “ninefold”. At GlyT1 [2] (D-Head group stereochemistry), this compound showed a half-inhibitory concentration (IC50) above 3000 nM.

Consider `CCCCCCC=CCCCCCCCC(=O)NC(CCCCN)C(=O)O` [C16ω7-L-Lys], for which, in [1] (L-Head group stereochemistry), the “% Maximal inhibition” value turned out to be 90.2 ± 2.1% and the IC50 turned out to be 66.6 nM. Besides, the half-inhibitory concentration (IC50) at GlyT1 [2] (L-Head group stereochemistry) is above 3000 nM.

With `CCCCC=CCCCCCCCCCCCC(=O)NC(CCCCN)C(=O)O` [C18ω5-D-Lys], in [1] (D-Head group stereochemistry), the “% Maximal inhibition” value worked out at 87.6 ± 3.7% and the IC50 is 64.9 nM. This compound registered an IC50 against GlyT1 [2] (D-Head group stereochemistry) above 3000 nM.

As for `CCCCC=CCCCCCCCCCCCC(=O)NC(CCCCN)C(=O)O` [C18ω5-L-Lys], in series [1] (L-Head group stereochemistry), the “% Maximal inhibition” value was 81.3 ± 5.1% and the IC50 was determined as 67.5 nM. The IC50 against GlyT1 [2] (L-Head group stereochemistry) is above 3000 nM.

Take `CCCCCCCC/C=C\CCCCCCCC(=O)N[C@H](CCCCN)C(=O)O` [C18ω9-D-Lys, oleoyl D-lysine]: the “Inhibition of GlyT2 W563L mutant” value in the series with GlyT2 W563L was “not inhibited”. Besides, in series [3], the Analgesia entry was “produces analgesia” and the Side effects entry is on record as “minimal side effects”. Moreover, the Blood-brain barrier permeability entry in series [4] is reported as “blood–brain barrier permeable”. For the same compound, the Metabolic stability entry in series [5] is “metabolically stable”. Also, at GlyT1 [6] (D-Head group stereochemistry), the IC50 is above 3000 nM. In [7] (D-Head group stereochemistry), the “% Maximal inhibition” value is given as 91.0 ^a % and the half-inhibitory concentration (IC50) was 0.0483 µM. The “GlyT2 inhibitory activity in words” value in series [7] is listed as “retains potency”. For the same compound, the “Inhibition of GlyT2 Y550L mutant” value in the series with GlyT2 Y550L is “not inhibited”.

For `CCCCCCCCC=CCCCCCCCC(=O)NC(Cc1c[nH]c2ccccc12)C(=O)O` [C18ω9-D-Trp], the IC50 is above 10000 nM on GlyT1 [6] (D-Head group stereochemistry) and above 10 µM in series [7] (D-Head group stereochemistry, μM). The “% Maximal inhibition” value in series [7] (D-Head group stereochemistry) is 14.2 ^a %. For the same compound, the “GlyT2 inhibitory activity in words” value in series [7] was “inactive”.

Regarding `CCCCCCCC/C=C\CCCCCCCC(=O)N[C@@H](CCCCN)C(=O)O` [C18ω9-L-Lys, oleoyl-L-lysine], the “Inhibition of GlyT2 W563L mutant” value with GlyT2 W563L is “not inhibited”. In addition, the IC50 at GlyT1 [6] (L-Head group stereochemistry) is above 3000 nM. Further, in [7] (L-Head group stereochemistry), the “% Maximal inhibition” value is 86.8 ^a % and the half-inhibitory concentration (IC50) was 0.0255 µM. Besides, in the series on GlyT2 Y550L, the “Inhibition of GlyT2 Y550L mutant” value is “not inhibited”.

`CCCCCCCCC=CCCCCCCCC(=O)NC(Cc1c[nH]c2ccccc12)C(=O)O` [C18ω9-L-Trp]: the IC50 was above 10000 nM at GlyT1 [6] (L-Head group stereochemistry) and 0.0546 µM in [7] (L-Head group stereochemistry). For the same compound, the “% Maximal inhibition” value in series [7] (L-Head group stereochemistry) is on record as 86.2 ^a %.

Turning to `COc1cc(C(=O)NCC2(N(C)C)CCCC2)cc(OC)c1OCc1ccccc1` [ORG25543], in the series on GlyT2, the concentration for half-maximal inhibition (IC50) was 16 nM.
